# Source: the Kinase Knowledgebase extract (Sharma et al. 2016)
# Biological target: PIK3CA (human) (UniProt P42336)
# Assay: Inhibition of PIK3CA Kinase Activity
# PIK3CA (human), sequence (P42336 whole entry, looked up): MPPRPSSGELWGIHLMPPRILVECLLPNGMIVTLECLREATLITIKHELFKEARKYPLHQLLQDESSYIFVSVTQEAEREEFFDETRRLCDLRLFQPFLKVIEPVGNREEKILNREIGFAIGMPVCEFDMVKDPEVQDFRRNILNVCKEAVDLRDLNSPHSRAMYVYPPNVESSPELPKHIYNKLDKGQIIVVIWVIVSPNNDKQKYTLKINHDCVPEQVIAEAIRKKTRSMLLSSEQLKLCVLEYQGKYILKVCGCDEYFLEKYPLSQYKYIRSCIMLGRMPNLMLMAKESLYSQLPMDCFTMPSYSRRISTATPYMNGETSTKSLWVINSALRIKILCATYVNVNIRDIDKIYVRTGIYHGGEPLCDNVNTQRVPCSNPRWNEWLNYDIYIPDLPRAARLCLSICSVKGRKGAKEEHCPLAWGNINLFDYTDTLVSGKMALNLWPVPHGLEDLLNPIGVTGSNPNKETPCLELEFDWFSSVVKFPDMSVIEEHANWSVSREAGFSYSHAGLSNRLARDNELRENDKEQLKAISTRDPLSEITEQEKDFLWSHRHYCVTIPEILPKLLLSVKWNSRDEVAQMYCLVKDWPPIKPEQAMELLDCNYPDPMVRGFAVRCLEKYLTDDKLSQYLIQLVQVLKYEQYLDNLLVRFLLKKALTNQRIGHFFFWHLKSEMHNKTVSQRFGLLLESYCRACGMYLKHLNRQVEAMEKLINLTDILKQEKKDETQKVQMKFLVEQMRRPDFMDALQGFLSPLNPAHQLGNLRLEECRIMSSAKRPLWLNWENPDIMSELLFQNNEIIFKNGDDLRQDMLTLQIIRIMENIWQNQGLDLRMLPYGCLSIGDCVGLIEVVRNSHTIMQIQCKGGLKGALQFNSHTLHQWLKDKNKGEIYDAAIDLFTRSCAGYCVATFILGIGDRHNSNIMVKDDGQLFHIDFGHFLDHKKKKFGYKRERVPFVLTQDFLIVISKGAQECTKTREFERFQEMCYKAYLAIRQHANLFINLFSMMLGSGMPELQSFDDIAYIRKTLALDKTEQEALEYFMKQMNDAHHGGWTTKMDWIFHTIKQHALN
row,SMILES,IC50 [nM]
1,COc1nc(N)ncc1-c1nc(N2CCOCC2)nc(-n2ccnc2C)n1,< 1000
2,CC(C)c1nccn1-c1nc(-c2cnc(N)nc2)nc(N2CCOCC2)n1,< 1000
3,CCc1nc2ccccc2n1-c1nc(-c2cnc(N)nc2)nc(N2CCOCC2)n1,< 1000
4,Cc1cc(C)n(-c2nc(-c3cccc4[nH]ccc34)nc(N3CCOCC3)n2)n1,< 1000
5,N#CCCc1nccn1-c1nc(-c2cccc3[nH]ccc23)nc(N2CCOCC2)n1,< 1000
6,Cc1nc2ccccc2n1-c1nc(-c2ccc(N)nc2)nc(N2CCOCC2)n1,< 1000
7,CC(C)Cc1nccn1-c1nc(-c2cccc3[nH]ccc23)nc(N2CCOCC2)n1,< 1000
8,CCc1cn(-c2nc(-c3cccc4[nH]ccc34)nc(N3CCOCC3)n2)c(CC)n1,< 1000
9,Nc1ccc(-c2nc(N3CCOCC3)nc(-n3ccc(C(F)(F)F)n3)n2)cn1,< 1000
10,CCCc1nccn1-c1nc(-c2ccnc3[nH]ccc23)nc(N2CCOCC2)n1,< 1000
11,c1ccc(-c2nccn2-c2nc(-c3cccc4[nH]ccc34)nc(N3CCOCC3)n2)cc1,< 1000
12,CC(C)c1nc2ccccc2n1-c1nc(-c2cnc(N)nc2)nc(N2CCOCC2)n1,< 1000
13,Cc1nc2ccccc2n1-c1nc(-c2cccc(O)c2)nc(N2CCOCC2)n1,< 1000
14,CC#Cc1cn(-c2nc(-c3cccc4[nH]ccc34)nc(N3CCOCC3)n2)c(CC)n1,< 1000
15,CCCCc1nc2ccccc2n1-c1nc(-c2cccc3[nH]ccc23)nc(N2CCOCC2)n1,< 1000
16,Cc1nccn1-c1nc(-c2cccc(CO)c2)nc(N2CCOCC2)n1,< 1000
17,Cc1ccc2c(c1)ncn2-c1nc(-c2cccc3[nH]ccc23)nc(N2CCOCC2)n1,< 1000
18,c1cc(-c2nc(N3CCOCC3)nc(-n3cnc(CN4CCCC4)c3)n2)c2cc[nH]c2c1,< 1000
19,COCCNCc1cn(-c2nc(-c3cccc4[nH]ccc34)nc(N3CCOCC3)n2)c(C)n1,< 1000
20,CCc1nc(C)c(CO)n1-c1nc(-c2cccc3[nH]ccc23)nc(N2CCOCC2)n1,< 1000
21,Cc1nccn1-c1nc(-c2cnc(N)nc2)nc(N2CCOCC2)n1,< 1000
22,FC(F)c1nc2ccccc2n1-c1nc(-c2cccc3[nH]ccc23)nc(N2CCOCC2)n1,< 1000
23,CC(=O)Nc1ccc(-c2nc(N3CCOCC3)nc(-n3c(C)nc4ccccc43)n2)cn1,< 1000
24,CCN(CC)CCN(C)Cc1cn(-c2nc(-c3cccc4[nH]ccc34)nc(N3CCOCC3)n2)cn1,< 1000
25,Cc1nc2ccccc2n1-c1nc(-c2cccc3[nH]ccc23)nc(N2CCOCC2)n1,< 1000
26,C[C@H]1COCCN1c1nc(-c2cnc(N)nc2)nc(-n2c(C(F)F)nc3ccccc32)n1,< 1000
27,CCCCN(C)Cc1cn(-c2nc(-c3cccc4[nH]ccc34)nc(N3CCOCC3)n2)c(C)n1,< 1000

row,SMILES,IC50 [nM]
1,Cc1cc(C(F)(F)F)n(-c2nc(-c3cnc(N)nc3)nc(N3CCOCC3)n2)n1,< 1000
2,CCCc1cn(-c2nc(-c3cccc4[nH]ccc34)nc(N3CCOCC3)n2)c(CC)n1,< 1000
3,CC(C)c1nccn1-c1nc(-c2cccc3[nH]ccc23)nc(N2CCOCC2)n1,< 1000
4,OCc1cn(-c2nc(-c3cccc4[nH]ccc34)nc(N3CCOCC3)n2)cn1,< 1000
5,Cc1nc2ccccc2n1-c1nc(-c2cnc(N)nc2)nc(N2CCOCC2)n1,< 1000
6,Nc1ccc(-c2nc(N3CCOCC3)nc(-n3ncc4c3CCCC4)n2)cn1,< 1000
7,CC(C)c1nc2ccccc2n1-c1nc(-c2cccc3[nH]ccc23)nc(N2CCOCC2)n1,< 1000
8,c1ccc(Cc2nccn2-c2nc(-c3cccc4[nH]ccc34)nc(N3CCOCC3)n2)cc1,< 1000
9,Cc1cn(-c2nc(-c3cccc4[nH]ccc34)nc(N3CCOCC3)n2)cn1,< 1000
10,Cc1ccn(-c2nc(-c3cccc4[nH]ccc34)nc(N3CCOCC3)n2)n1,< 1000
11,FC(F)(F)c1nc2ccccc2n1-c1nc(-c2cccc3[nH]ccc23)nc(N2CCOCC2)n1,< 1000
12,Cc1nc(CNC2CC2)cn1-c1nc(-c2cccc3[nH]ccc23)nc(N2CCOCC2)n1,< 1000
13,c1cc(-c2nc(N3CCOCC3)nc(-n3ccnc3)n2)c2cc[nH]c2c1,< 1000
14,Nc1ncc(-c2nc(N3CCOCC3)nc(-n3c(C(F)F)nc4ccccc43)n2)cn1,< 1000
15,CCc1nccn1-c1nc(-c2cccc3[nH]ccc23)nc(N2CCOCC2)n1,< 1000
16,CCCCc1nc2ccccc2n1-c1nc(-c2cnc(N)nc2)nc(N2CCOCC2)n1,< 1000
17,N#CCCc1nccn1-c1nc(-c2cnc(N)nc2)nc(N2CCOCC2)n1,< 1000
18,CCc1nc2ccccc2n1-c1nc(-c2cccc3[nH]ccc23)nc(N2CCOCC2)n1,< 1000
19,Cc1nccn1-c1nc(-c2cccc3[nH]ccc23)nc(N2CCOCC2)n1,< 1000
20,Cc1nc(CN2CCCC2)cn1-c1nc(-c2cccc3[nH]ccc23)nc(N2CCOCC2)n1,< 1000
21,Cc1nccn1-c1nc(-c2cccc(O)c2)nc(N2CCOCC2)n1,< 1000
22,Cc1nc2ccccc2n1-c1nc(-c2cccc(CO)c2)nc(N2CCOCC2)n1,< 1000
23,c1ccc2c(c1)nc(C1CC1)n2-c1nc(-c2cccc3[nH]ccc23)nc(N2CCOCC2)n1,< 1000
24,Nc1ncc(-c2nc(N3CCOCC3)nc(-n3ccc(C(F)(F)F)n3)n2)cn1,< 1000
25,Cc1ccn(-c2nc(-c3ccc(N)nc3)nc(N3CCOCC3)n2)n1,< 1000
26,O=C(NC1CC1)c1cc2ccccc2n1-c1nc(-c2cccc3[nH]ccc23)nc(N2CCOCC2)n1,< 1000
27,Nc1ncc(-c2nc(N3CCOCC3)nc(-n3ncc4c3CCCC4)n2)cn1,< 1000

row,SMILES,IC50 [nM]
1,CCCCc1nccn1-c1nc(-c2cccc3[nH]ccc23)nc(N2CCOCC2)n1,< 1000
2,C=Cc1nccn1-c1nc(-c2cccc3[nH]ccc23)nc(N2CCOCC2)n1,< 1000
3,CCc1nccn1-c1nc(-c2cnc(N)nc2)nc(N2CCOCC2)n1,< 1000
4,O=C(O)c1cc2ccccc2n1-c1nc(-c2cccc3[nH]ccc23)nc(N2CCOCC2)n1,< 1000
5,Cc1nc(CO)cn1-c1nc(-c2cccc3[nH]ccc23)nc(N2CCOCC2)n1,< 1000
6,CCCCN(C)Cc1c(C)nc(CC)n1-c1nc(-c2cccc3[nH]ccc23)nc(N2CCOCC2)n1,< 1000
7,Cc1nc(N)ncc1-c1nc(N2CCOCC2)nc(-n2ccnc2C(C)C)n1,< 1000
8,COCCNC(=O)c1cc2ccccc2n1-c1nc(-c2cccc3[nH]ccc23)nc(N2CCOCC2)n1,< 1000
9,CCCc1nccn1-c1nc(-c2cccc3[nH]ccc23)nc(N2CCOCC2)n1,< 1000
10,CCc1nc(C#Cc2ccccn2)cn1-c1nc(-c2cccc3[nH]ccc23)nc(N2CCOCC2)n1,< 1000
11,COC(=O)CCc1nc2ccccc2n1-c1nc(-c2cccc3[nH]ccc23)nc(N2CCOCC2)n1,< 1000
12,N#CC=Cc1nccn1-c1nc(-c2cccc3[nH]ccc23)nc(N2CCOCC2)n1,< 1000
13,Cc1cc(C(F)(F)F)n(-c2nc(-c3ccc(N)nc3)nc(N3CCOCC3)n2)n1,< 1000
14,Cc1nccn1-c1nc(-c2cccc3[nH]ncc23)nc(N2CCOCC2)n1,< 1000
15,CCCc1nc2ccccc2n1-c1nc(-c2cnc(N)nc2)nc(N2CCOCC2)n1,< 1000
16,CCCCc1nccn1-c1nc(-c2cnc(N)nc2)nc(N2CCOCC2)n1,< 1000
17,Cc1ccn(-c2nc(-c3cnc(N)nc3)nc(N3CCOCC3)n2)n1,< 1000
18,C#Cc1cn(-c2nc(-c3cccc4[nH]ccc34)nc(N3CCOCC3)n2)c(CC)n1,< 1000
19,Cc1cc(C)n(-c2nc(-c3ccc(N)nc3)nc(N3CCOCC3)n2)n1,< 1000
20,Oc1cccc(-c2nc(N3CCOCC3)nc(-n3c(C(F)F)nc4ccccc43)n2)c1,< 1000
21,Nc1ccc2c(c1)nc(C(F)(F)F)n2-c1nc(-c2cccc3[nH]ccc23)nc(N2CCOCC2)n1,< 1000
22,CCCc1nc2ccccc2n1-c1nc(-c2cccc3[nH]ccc23)nc(N2CCOCC2)n1,< 1000
23,CCc1nc(C)cn1-c1nc(-c2cccc3[nH]ccc23)nc(N2CCOCC2)n1,< 1000
24,Cc1nc2ccccc2n1-c1nc(-c2cc(O)cc(F)c2)nc(N2CCOCC2)n1,< 1000
25,CCc1nccn1-c1nc(-c2ccnc3[nH]ccc23)nc(N2CCOCC2)n1,< 1000
